The experiment addresses T1, human TRPM8 (Homo sapiens, UniProt Q7Z2W7).
T1 construct: expressed in transfected cells; host or cells: Chinese hamster ovary (CHO) cells, T-REx tetracycline-inducible system, co-transfected with aequorin
Briefly: Luminescence readout assay for measuring intracellular calcium, icilin activation. Format: cell-based. Conditions: CHO cells expressing human TRPM8, aequorin luminescence, 1 μM icilin activation; read-out: hTRPM8 IC50. In short, it runs like this:
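The read-out was luminescence reporting intracellular calcium, recorded by a CCD-based luminometer. Compounds were preincubated for 2.5 min before agonist challenge with 1 μM icilin. Human TRPM8 was expressed in a stable T-REx CHO line, induced with 0.5 μg/mL tetracycline the day before.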

The structures appear in SMILES notation.

T1 sequence (Q7Z2W7 whole entry): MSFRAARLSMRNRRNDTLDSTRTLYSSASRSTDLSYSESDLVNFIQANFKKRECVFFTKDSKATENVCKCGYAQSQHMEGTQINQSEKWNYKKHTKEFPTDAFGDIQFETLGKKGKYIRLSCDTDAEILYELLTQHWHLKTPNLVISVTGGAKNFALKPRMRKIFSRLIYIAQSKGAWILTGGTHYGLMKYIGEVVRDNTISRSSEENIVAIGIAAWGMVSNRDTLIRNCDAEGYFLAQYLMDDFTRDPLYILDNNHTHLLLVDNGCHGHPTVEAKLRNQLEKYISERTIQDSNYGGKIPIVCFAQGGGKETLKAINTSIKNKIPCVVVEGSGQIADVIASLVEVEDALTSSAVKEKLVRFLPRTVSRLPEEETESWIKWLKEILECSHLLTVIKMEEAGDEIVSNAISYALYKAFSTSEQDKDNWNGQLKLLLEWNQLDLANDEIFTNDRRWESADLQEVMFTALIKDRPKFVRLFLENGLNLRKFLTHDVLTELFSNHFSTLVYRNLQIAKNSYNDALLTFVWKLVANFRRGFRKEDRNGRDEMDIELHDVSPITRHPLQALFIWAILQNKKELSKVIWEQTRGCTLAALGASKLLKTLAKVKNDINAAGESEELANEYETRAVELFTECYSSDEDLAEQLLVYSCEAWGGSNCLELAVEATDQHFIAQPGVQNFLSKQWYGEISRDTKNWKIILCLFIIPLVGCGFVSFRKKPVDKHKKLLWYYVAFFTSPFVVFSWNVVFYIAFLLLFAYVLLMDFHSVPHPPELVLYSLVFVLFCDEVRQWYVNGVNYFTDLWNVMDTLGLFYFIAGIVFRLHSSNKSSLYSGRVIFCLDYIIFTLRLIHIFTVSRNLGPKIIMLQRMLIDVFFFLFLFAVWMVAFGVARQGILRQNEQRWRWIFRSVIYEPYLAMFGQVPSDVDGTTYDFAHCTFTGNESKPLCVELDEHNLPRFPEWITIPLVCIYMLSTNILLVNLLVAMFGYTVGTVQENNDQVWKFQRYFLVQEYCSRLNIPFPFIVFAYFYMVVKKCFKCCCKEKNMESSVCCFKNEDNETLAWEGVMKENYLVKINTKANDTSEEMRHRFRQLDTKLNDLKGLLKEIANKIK

For `O=C(N[C@@H](c1ccc(C(F)(F)F)cc1)c1ncccc1C(F)(F)F)c1ccc(F)cc1` [Example 183, (S)-4-fluoro-N-((4-(trifluoromethyl)phenyl)(3-(trifluoromethyl)pyridin-2-yl)methyl)benzamide], the IC50 stood at 0.0396 µM. For `COc1ncccc1C(=O)N[C@@H](c1ccc(C(F)(F)F)cc1)c1ncccc1F` [Example 47, (S)-N-((3-fluoropyridin-2-yl)(4-(trifluoromethyl)phenyl)methyl)-2-methoxynicotinamide], the half-maximal inhibitory concentration (IC50) worked out at 0.0201 µM.

Take `COc1cccc(C(NC(=O)c2ccc(=O)[nH]c2)c2ccc(OC(F)(F)F)c(F)c2)n1` (stereo not shown) [Example 420, N-((3-fluoro-4-(trifluoromethoxy)phenyl)(6-methoxypyridin-2-yl)methyl)-6-oxo-1,6-dihydropyridine-3-carboxamide]: the IC50 came out at 0.118 µM. In the case of `C[C@@H](O)Cn1cc(C(=O)N[C@@H](c2ccc(C(F)(F)F)cc2)c2ncccc2F)ccc1=O` [Example 301, N-((S)-(3-fluoropyridin-2-yl)(4-(trifluoromethyl)phenyl)methyl)-1-((R)-2-hydroxypropyl)-6-oxo-1,6-dihydropyridine-3-carboxamide] it was 0.0417 µM. The value for `O=C(N[C@@H](c1ccc(C(F)(F)F)cc1)c1ncccc1C(F)(F)F)c1cccc(Cl)c1` [Example 208, (S)-3-chloro-N-((4-(trifluoromethyl)phenyl)(3-(trifluoromethyl)pyridin-2-yl)methyl)benzamide] was 0.0417 µM; that for `COc1cccc([C@H](NC(=O)c2ccc3cccnc3c2)c2ncccc2C(F)(F)F)c1` [Example 24, (S)-N-((3-methoxyphenyl)(3-(trifluoromethyl)pyridin-2-yl)methyl)quinoline-7-carboxamide] was 0.318 µM; that for `O=C(N[C@@H](c1ccc(C(F)(F)F)cc1)c1ncccc1Cl)c1ccc(=O)[nH]c1` [Example 248, (S)-N-((3-chloropyridin-2-yl)(4-(trifluoromethyl)phenyl)methyl)-6-oxo-1,6-dihydropyridine-3-carboxamide 2,2,2-trifluoroacetate] was 0.0119 µM. The value for `Cn1cc(C(=O)N[C@@H](c2cc(F)cc(C(F)(F)F)c2)c2ncccc2F)ccc1=O` [Example 328, (S)-N-((3-fluoro-5-(trifluoromethyl)phenyl)(3-fluoropyridin-2-yl)methyl)-1-methyl-6-oxo-1,6-dihydropyridine-3-carboxamide] was 1.06 µM; that for `O=C(CCc1ccccn1)N[C@@H](c1ccc(C(F)(F)F)cc1)c1ncccc1C(F)(F)F` [Example 284, (S)-3-(Pyridin-2-yl)-N-((4-(trifluoromethyl)phenyl)(3-(trifluoromethyl)pyridin-2-yl)methyl)propanamide] was 0.346 µM. Turning to `O=C(N[C@@H](c1ccc(C(F)(F)F)cc1)c1c(F)cccc1F)c1ccc(=O)[nH]c1` [Example 258, (S)-N-((2,6-difluorophenyl)(4-(trifluoromethyl)phenyl)methyl)-6-oxo-1,6-dihydropyridine-3-carboxamide], the IC50 worked out at 0.0407 µM.

Turning to `Cc1ccc([C@H](NC(=O)c2ccc(=O)[nH]c2)c2ncccc2F)cc1` [Example 379, (S)-N-((3-fluoropyridin-2-yl)(p-tolyl)methyl)-6-oxo-1,6-dihydropyridine-3-carboxamide], the IC50 was 0.27 µM.

As to `CCn1cc(C(=O)N[C@@H](c2ccc(C(F)(F)F)cc2)c2ncccc2F)ccc1=O` [Example 364, (S)-1-ethyl-N-((3-fluoropyridin-2-yl)(4-(trifluoromethyl)phenyl)methyl)-6-oxo-1,6-dihydropyridine-3-carboxamide], the IC50 turned out to be 0.0158 µM. The value for `O=C(N[C@@H](c1ccc(OC(F)(F)F)c(F)c1)c1ncccc1F)c1ccc(=O)n(C(F)F)c1` [Example 399, (S)-1-(difluoromethyl)-N-((3-fluoro-4-(trifluoromethoxy)phenyl)(3-fluoropyridin-2-yl)methyl)-6-oxo-1,6-dihydropyridine-3-carboxamide] was 0.0165 µM; that for `O=C(N[C@@H](c1ccc(C(F)(F)F)c(F)c1)c1ncccc1C(F)(F)F)[C@@H]1CCCO1` [Example 119, (S)-N-((S)-(3-fluoro-4-(trifluoromethyl)phenyl)(3-(trifluoromethyl)pyridin-2-yl)methyl)THF-2-carboxamide] was 0.1 µM.

In the case of `CC(C)(O)Cn1cc(C(=O)N[C@@H](c2ccc(C(F)(F)F)cc2)c2ncccc2F)ccc1=O` [Example 303, (S)-N-((3-fluoropyridin-2-yl)(4-(trifluoromethyl)phenyl)methyl)-1-(2-hydroxy-2-methylpropyl)-6-oxo-1,6-dihydropyridine-3-carboxamide], the IC50 came out at 0.143 µM. As for `O=C(N[C@@H](c1ccc(OC(F)(F)F)c(F)c1)c1ncccc1Br)c1ccc(=O)[nH]c1` [Example 382, (S)-N-((3-bromopyridin-2-yl)(3-fluoro-4-(trifluoromethoxy)phenyl)methyl)-6-oxo-1,6-dihydropyridine-3-carboxamide], the half-inhibitory concentration (IC50) came out at 0.0069 µM. In the case of `O=C1CCCC(C(=O)N[C@@H](c2ccc(C(F)(F)F)cc2)c2ncccc2C(F)(F)F)C1` (stereo partly drawn) [Example 223, 3-oxo-N-((S)-(4-(trifluoromethyl)phenyl)(3-(trifluoromethyl)pyridin-2-yl)methyl)cyclohexanecarboxamide] it was 0.599 µM; in that of `Cn1ccc(C(=O)N[C@@H](c2ccc(C(F)(F)F)cc2)c2ncccc2C(F)(F)F)n1` [Example 192, (S)-1-methyl-N-((4-(trifluoromethyl)phenyl)(3-(trifluoromethyl)pyridin-2-yl)methyl)-1H-pyrazole-3-carboxamide], 0.079 µM; in that of `COC(=O)c1ccc(C(=O)N[C@@H](c2ccc(OC(F)(F)F)c(F)c2)c2ncccc2F)nc1` [Example 398, (S)-methyl 6-(((3-fluoro-4-(trifluoromethoxy)phenyl)(3-fluoropyridin-2-yl)methyl)carbamoyl)nicotinate], 0.189 µM. The value for `COc1ccc(C(=O)N[C@@H](c2ccc(C(F)(F)F)cc2)c2ncccc2F)cc1` [Example 172, (S)-N-((3-fluoropyridin-2-yl)(4-(trifluoromethyl)phenyl)methyl)-4-methoxybenzamide] was 0.0181 µM; that for `O=C(N[C@@H](c1ccc(C(F)(F)F)cc1)c1ncccc1C(F)(F)F)c1ccc2c(c1)NCCC2` [Example 274, (S)—N-((4-(Trifluoromethyl)phenyl)(3-(trifluoromethyl)pyridin-2-yl)methyl)-1,2,3,4-tetrahydroquinoline-7-carboxamide] was 0.198 µM. The value for `CCn1cc(C(=O)N[C@@H](c2ccc(OC(F)(F)F)c(F)c2)c2ncccc2F)ccc1=O` [Example 366, (S)-1-ethyl-N-((3-fluoro-4-(trifluoromethoxy)phenyl)(3-fluoropyridin-2-yl)methyl)-6-oxo-1,6-dihydropyridine-3-carboxamide] was 0.0097 µM; that for `Cc1cccnc1[C@@H](NC(=O)c1ccc2c(c1)OCC(=O)N2)c1ccc(OC(F)(F)F)c(F)c1` [Example 357, (S)-N-((3-fluoro-4-(trifluoromethoxy)phenyl)(3-methylpyridin-2-yl)methyl)-3-oxo-3,4-dihydro-2H-benzo[b][1,4]oxazine-7-carboxamide] was 0.0466 µM. Turning to `O=C(Cc1cccnc1)N[C@@H](c1ccc(C(F)(F)F)cc1)c1ncccc1C(F)(F)F` [Example 238, (S)-2-(pyridin-3-yl)-N-((4-(trifluoromethyl)phenyl)(3-(trifluoromethyl)pyridin-2-yl)methyl)acetamide], the IC50 was 0.547 µM. In the case of `O=C1CCc2cc(C(=O)N[C@@H](c3ccc(OC(F)(F)F)cc3)c3ncccc3F)ccc2N1` [Example 352, (S)-N-((3-fluoropyridin-2-yl)(4-(trifluoromethoxy)phenyl)methyl)-2-oxo-1,2,3,4-tetrahydroquinoline-6-carboxamide] it was 0.0188 µM; in that of `O=C(N[C@@H](c1ccc(C(F)(F)F)cc1)c1ncccc1C(F)(F)F)c1cccc(C(F)(F)F)c1` [Example 211, (S)-3-(trifluoromethyl)-N-((4-(trifluoromethyl)phenyl)(3-(trifluoromethyl)pyridin-2-yl)methyl)benzamide], 0.115 µM; in that of `O=C(N[C@@H](c1ccc(C(F)(F)F)cc1)c1cnccc1C(F)(F)F)c1ccc2ncccc2c1` [Example 260, (S)-N-((4-(trifluoromethyl)phenyl)(4-(trifluoromethyl)pyridin-3-yl)methyl)quinoline-6-carboxamide bis (2,2,2-trifluoroacetate)], 0.311 µM. `O=C(O)C1CCC(C(=O)N[C@@H](c2ccc(C(F)(F)F)cc2)c2ncccc2C(F)(F)F)CC1` (stereo partly drawn) [Example 244, (S)-4-(((4-(trifluoromethyl)phenyl)(3-(trifluoromethyl)pyridin-2-yl)methyl)carbamoyl)cyclohexanecarboxylic acid]: the IC50 was 3.38 µM. As to `O=C(N[C@@H](c1ccc(C(F)(F)F)cc1)c1ncccc1F)c1ccc(=O)[nH]n1` [Example 317, (S)-N-((3-fluoropyridin-2-yl)(4-(trifluoromethyl)phenyl)methyl)-6-oxo-1,6-dihydropyridazine-3-carboxamide], the IC50 was found to be 0.0389 µM. The value for `N#Cc1ccc(C(=O)N[C@@H](c2ccc(C(F)(F)F)cc2)c2ncccc2F)cc1` (stereo in doubt) [Example 200, 4-cyano-N-((3-fluoropyridin-2-yl)(4-(trifluoromethyl)phenyl)methyl)benzamide] was 0.0493 µM; that for `Cn1cc(C(=O)N[C@@H](c2ccc(OC(F)(F)F)cc2)c2ncccc2F)ccc1=O` [Example 252, (S)-N-((3-fluoropyridin-2-yl)(4-(trifluoromethoxy)phenyl)methyl)-1-methyl-6-oxo-1,6-dihydropyridine-3-carboxamide 2,2,2-trifluoroacetate] was 0.0247 µM.

The values are drawn from patent publication US8710043B2, “TRPM8 antagonists and their use in treatments” (Amgen Inc., priority 2011, dated 2014).
